Data published in PMC5833756, “A novel ruthenium complex with xanthoxylin induces S-phase arrest and causes ERK1/2-mediated apoptosis in HepG2 cells through a p53-independent pathway” (Cell Death & Disease, 2018).
“And” between values parts separate entries of the source, which are not always exact repeats. Identical values can stand only once. Like-named read-outs stand apart in the source and are kept apart here.

Legend:
MCF-7 = type: cell-based, human
HSC-3 = type: cell-based, human
SCC-4 = type: cell-based, human
PBMC = type: cell-based; conditions: PBMC (human peripheral blood mononuclear cells, non-cancer), 72 h
[1] = system: multicellular spheroids formed from HepG2 cells; experiment: 3D multicellular spheroid culture, alamar blue; type: cell-based, human; conditions: Homo sapiens; HepG2 3D spheroids, 72 h
Protocol: HepG2 cells were cultivated in 3D multicellular spheroids. Briefly, 100 μL of cell solution (0.5 × 10^6 cells/mL) was added to a 96-well plate with a cell-repellent surface (Greiner Bio-One, Kremsmünster, Austria) and cultured in complete medium plus 3% Matrigel (BD Biosciences, San Jose, CA, USA). Spheroids with stable structures formed after three days. Then, the spheroids were exposed to a range of drug concentrations for 72 h. The negative control received the vehicle that was used for diluting the complex tested. In the end of the experiment, morphological changes were examined by light microscopy (Olympus BX41, Tokyo, Japan) using Image-Pro software (Media Cybernetics, Inc. Silver Spring, USA), and cell viability was quantified by alamar blue assay as described above.

HepG2 cells = experiment: Gene expression analysis by qPCR array (TaqMan Array Human Molecular Mechanisms of Cancer); type: cell-based; design: key to RQ CCND3 gene expression / RQ CDC42 gene expression / RQ DVL1 gene expression / RQ FYN gene expression / RQ KRAS gene expression / RQ MAP2K1 gene expression / RQ MAPK1 gene expression / RQ MAPK14 gene expression / RQ NFKB2 gene expression / RQ RAF1 gene expression / RQ RELA gene expression / RQ BCAR1 gene expression: 2^-ΔΔCT relative quantification vs 0.2% DMSO control (calibrator = 1); conditions: HepG2, 12 h; RCX 12 µM, DOX 2 µM
Protocol: HepG2 cells were plated in bottles for cell culture (7 × 10^4 cells/mL). […] The RNA was evaluated by fluorimetry using QuBit (Life Technologies; Camarillo, CA, USA). RNA reverse transcription was performed using a Superscript VILO™ Kit (Invitrogen Corporation; Waltham, MA, USA). A 96-well plate TaqMan® Array Human Molecular Mechanisms of Cancer (ID 4418806, Applied Biosystems^TM, Foster City, CA, USA) was used for the gene expression study by qPCR. The reactions were conducted in an ABI ViiA7 system (Applied Biosystems^TM; Foster City, CA, USA). The cycle conditions comprised 2 min at 50 °C, 20 s at 95 °C, then 40 cycles of 3 s at 95 °C and 30 s at 60 °C. The relative quantification (RQ) of mRNA expression was calculated by the 2^-ΔΔCT method[40] using Gene Expression Suite™ Software (Applied Biosystems^TM), and the cells treated with the negative control (0.2% DMSO) were used as a calibrator. The reactions were normalized by the geometric mean of the RQ of the reference genes GAPDH, 18S and HPRT1. All experiments were performed in DNase/RNase-free conditions.

AGP-01 = AGP-01 (human ascitic gastric adenocarcinoma), 72 h

COc1cccc2c1C(=O)c1c(O)c3c(c(O)c1C2=O)C[C@@](O)(C(=O)CO)C[C@@H]3O[C@H]1C[C@H](N)[C@H](O)[C@H](C)O1 [DOX, doxorubicin]
selectivity index (SI) (MCF-7; IC50 HaCAT / IC50 MCF-7): 0.1 | selectivity index (SI) (MCF-7; IC50 MRC5 / IC50 MCF-7): 1.2 | selectivity index (SI) (MCF-7; IC50 PBMC / IC50 MCF-7): 4.7 | IC50 (MCF-7; MCF7, MCF-7 (human breast adenocarcinoma), 72 h): 1100 nM | IC50 (HSC-3; HSC-3 (human oral squamous cell carcinoma), 72 h): 400 nM | selectivity index (SI) (HSC-3; IC50 HaCAT / IC50 HSC-3): 0.3 | selectivity index (SI) (HSC-3; IC50 MRC5 / IC50 HSC-3): 3.3 | selectivity index (SI) (HSC-3; IC50 PBMC / IC50 HSC-3): 13 | selectivity index (SI) (SCC-4; IC50 HaCAT / IC50 SCC-4): 0.1 | selectivity index (SI) (SCC-4; IC50 MRC5 / IC50 SCC-4): 0.6 | selectivity index (SI) (SCC-4; IC50 PBMC / IC50 SCC-4): 2.5 | IC50 (SCC-4; SCC-4 (human oral squamous cell carcinoma), 72 h): 2100 nM | IC50 (PBMC): 5200 nM | IC50 [1]: 18100 nM | RQ ABL1 gene expression (HepG2 cells): 2.628 | RQ AKT1 gene expression (HepG2 cells): 1.813 | RQ AKT2 gene expression (HepG2 cells): 3.3 and 3.275 | RQ APC gene expression (HepG2 cells): 1.780 | RQ BAX gene expression (HepG2 cells): 0.964 | RQ BCAR1 gene expression (HepG2 cells): 2.2 and 2.176 | RQ BCL2L1 gene expression (HepG2 cells): 0.663 | RQ BCL2L11 gene expression (HepG2 cells): 14.0 and 13.988 | RQ BCL2 gene expression (HepG2 cells): 1.1 and 1.140 | RQ BID gene expression (HepG2 cells): 1.433 | RQ BRAF gene expression (HepG2 cells): 1.0 and 1.012 | RQ CASP8 gene expression (HepG2 cells): 1.414 | RQ CASP9 gene expression (HepG2 cells): 0.957 | RQ CCND1 gene expression (HepG2 cells): 0.8 and 0.820 | RQ CCND3 gene expression (HepG2 cells): 1.2 and 1.151 | RQ CCNE1 gene expression (HepG2 cells): 1.535 | RQ CDC42 gene expression (HepG2 cells): 1.1 and 1.077 | RQ CDK2 gene expression (HepG2 cells): 4.331 | RQ CDK4 gene expression (HepG2 cells): 1.4 and 1.427 | RQ CDKN1A gene expression (HepG2 cells): 2.849 | RQ CDKN1B gene expression (HepG2 cells): 1.0 and 1.029 | RQ CDKN2A gene expression (HepG2 cells): 2.0 and 2.027 | RQ CRK gene expression (HepG2 cells): 2.5 and 2.519 | RQ CTNNB1 gene expression (HepG2 cells): 2.392 | RQ CYCS gene expression (HepG2 cells): 0.582 | RQ DVL1 gene expression (HepG2 cells): 0.5 and 0.539 | RQ E2F1 gene expression (HepG2 cells): 4.8 and 4.768 | RQ EGFR gene expression (HepG2 cells): 0.5 and 0.502 | RQ ELK1 gene expression (HepG2 cells): 2.1 and 2.142 | RQ ERBB2 gene expression (HepG2 cells): 1.8 and 1.746 | RQ FADD gene expression (HepG2 cells): 3.100 | RQ FAS gene expression (HepG2 cells): 2.5 and 2.459 | RQ FGF2 gene expression (HepG2 cells): 1.9 and 1.914 | RQ FOS gene expression (HepG2 cells): 1.514 | RQ FYN gene expression (HepG2 cells): 1.0 and 1.034 | RQ FZD1 gene expression (HepG2 cells): 5.8 and 5.811 | RQ GRB2 gene expression (HepG2 cells): 1.030 | RQ GSK3B gene expression (HepG2 cells): 0.590 | RQ HRAS gene expression (HepG2 cells): 1.4 and 1.370 | RQ IGF1R gene expression (HepG2 cells): 1.160 | RQ ITGA2B gene expression (HepG2 cells): 2.4 and 2.384 | RQ ITGAV gene expression (HepG2 cells): 2.101 | RQ ITGB1 gene expression (HepG2 cells): 1.941 | RQ ITGB3 gene expression (HepG2 cells): 1.707 | RQ JUN gene expression (HepG2 cells): 7.3 and 7.340 | RQ KRAS gene expression (HepG2 cells): 2.6 and 2.552 | RQ MAP2K1 gene expression (HepG2 cells): 2.4 and 2.441 | RQ MAP3K5 gene expression (HepG2 cells): 1.887 | RQ MAPK1 gene expression (HepG2 cells): 0.9 and 0.857 | RQ MAPK3 gene expression (HepG2 cells): 1.561 | RQ MAPK8 gene expression (HepG2 cells): 1.273 | RQ MAPK14 gene expression (HepG2 cells): 2.2 and 2.163 | RQ MDM2 gene expression (HepG2 cells): 0.9 and 0.928 | RQ MYC gene expression (HepG2 cells): 0.4 and 0.392 | RQ NFKB1 gene expression (HepG2 cells): 2.0 and 2.017 | RQ NFKB2 gene expression (HepG2 cells): 3.6 and 3.594 | RQ NFKBIA gene expression (HepG2 cells): 1.224 | RQ NRAS gene expression (HepG2 cells): 1.874 | RQ PIK3CA gene expression (HepG2 cells): 2.854 | RQ PIK3R1 gene expression (HepG2 cells): 6.207 | RQ PTEN gene expression (HepG2 cells): 0.476 | RQ PTK2B gene expression (HepG2 cells): 0.530 | RQ PTK2 gene expression (HepG2 cells): 1.0 and 0.948 | RQ RAC1 gene expression (HepG2 cells): 2.048 | RQ RAF1 gene expression (HepG2 cells): 3.5 and 3.447 | RQ RB1 gene expression (HepG2 cells): 1.230 | RQ RELA gene expression (HepG2 cells): 1.1 and 1.074 | RQ RHOA gene expression (HepG2 cells): 1.270 | RQ SHC1 gene expression (HepG2 cells): 1.9 and 1.865 | RQ SMAD4 gene expression (HepG2 cells): 2.6 and 2.601 | RQ SOS1 gene expression (HepG2 cells): 2.2 and 2.199 | RQ SRC gene expression (HepG2 cells): 1.036 | RQ TCF3 gene expression (HepG2 cells): 1.9 and 1.915 | RQ TGFB1 gene expression (HepG2 cells): 1.413 | RQ TGFBR1 gene expression (HepG2 cells): 1.403 | RQ TGFBR2 gene expression (HepG2 cells): 1.094 | RQ TP53 gene expression (HepG2 cells): 1.0 and 0.945 | RQ VEGFA gene expression (HepG2 cells): 1.8 and 1.772 | IC50 (AGP-01): 1900 nM
